# How the values were obtained:
# [1] = system: subjects with early-stage dementia; details: 44 subjects with early-stage dementia; cited from earlier work
# [2] = system: spleen T-cells; experiment: Proliferation assay ([3H]thymidine incorporation) of spleen cells after feeding or nasal treatment and immunization; assay type: in vivo, SWISSXBDF1 mice; details: fed (75 µg/feeding x 5) or nasally treated (25 µg x 3); immunized two days after last treatment with 100 µg peptide in 50 µg CFA; Figure 1A
# Experimental: (§1) Female BALB/C (6-8 weeks of age); DBA/2; C3H/eb; C47b1/6; SWISSXBDF1 or SHL/J mice were used. The animals were maintained in a temperature- and light-controlled environment with free access to feed and water. Each experimental group contained no fewer than 5 mice.
# (§2) Mice were immunized with 100 µg of [1-40]β-amyloid peptide ([1-40]Aβ) emulsified in 50 µg CFA (Difco Laboratories, Inc.). On day 10, popliteal lymph nodes and spleens were removed and for T-cell proliferation and cytokine production.
# [3] = system: β-amyloid; experiment: Immunoassay of mouse antisera for IgG subtypes against β-amyloid (Down syndrome brain sections as capture antigen); assay type: in vivo, PDAPP mice; details: nasally treated with 25 µg; over controls; Figure 11
# Experimental: In these experiments, the antisera were tested in an immunoassay for the presence of IgG subtypes against β-amyloid. In the immunoassay, Down syndrome brain sections, which contain large amounts of β-amyloid, were employed as "capture" antigen. IgG in the mice antisera were bound to the sections, and the presence of IgG subtypes in the bound antibodies distinguished by secondary (2°) antibodies specific for each subtype. […] These antibodies are associated with Th2 type cellular immune responses.
# [4] = system: popliteal lymph node and spleen T-cells; experiment: Cytokine production assay (capture ELISA) after feeding or nasal administration and immunization; assay type: in vivo, C3H/EB mice; details: then immunized
# Experimental: C3H/eb mice were fed [1-40]Aβ 500 µg/feeding, 50 µg/feeding, or 5 µg/feeding every day for 5 days (200 µl/feeding). Nasal administration was given at 50 µg/application or 5 µg/application every day for 3 days (10 µl/application).
# This experiment also served as a preliminary dose response experiment for this mouse strain.
# Figure 5A illustrates the result in secretion of the Th1 immunostimulatory (proinflammatory) cytokine IL-2 in popliteal lymph nodes from C3H/EB mice at various feeding levels (5, 50 and 500 µg/feeding for 5 days) and when nasally administered (5 or 50 µg/application for 3 days) [1-40]β-amyloid peptide prior to immunization (2 days after the last feeding or nasal application) with 100 µg [1-40]β-amyloid peptide in 50 µg CFA. […] Based on the results for Fig. 5A, and Figs. 5B, 6A, 6B, and 7A, 7B, it was decided to use 25 µg nasally and 75 µg orally in subsequent experiments.
# [5] = system: PLN; details: mice of certain strains (e.g., C3H/EB and DBA/1) mucosally tolerized
# [6] = system: PLN; details: mucosally administered, immunized 10 days prior to sacrifice
# Experimental: Levels of IL-4, IL-2, IL-10, TGF-β and IFNγ in supernatants were determined by capture ELISA as described. Friedman, A., et al., Proc. Nat'l Acad. Sci. U.S.A., 91, 6688 (1994); Yang, X., et al., J. Immunol., 150, 4354 (1993). Briefly, supernatants were added to microtiter (Maxisorp) plates, previously coated with rat anti-mouse IL-4, IL-2, IL-10, TGF-β or IFN-γ monoclonal antibodies (capture antibodies, Pharmingen; 1 µg/ml at 4°C over night) and blocked with BSA-diluent/blocking solution (KPL). Plates were washed, and standards and samples were added for another overnight incubation at 4°C. Bound cytokine was detected by the addition of ABTS (Kirkegaard & Perry). Wells were washed, and cytokine levels determined using biotinylated rat anti-mouse IL-4, IL-2, IL-10, TGF-β or IFN-γ monoclonal antibodies (detecting antibodies, Pharmingen) and a peroxide visualization system (peroxidase-labeled streptavidin). IL-2 and IL-4 were analyzed after 24 hours of cell incubation with antigen, IL-10 and IFN-γ after 40 hours and TGF-β after 72 hours. Cytokine levels were calculated from a log-log plot of absorbance vs. concentration of recombinant cytokines (Pharmingen), and results are expressed in pg/mL (for IL-4, IL-2, IL-10, TGF-β and IFN-γ). Threshold sensitivities of ELISA assays were 5 pg/mL, 10 pg/mL and 2.5 ng/mL for IL-4, IL-2 and IFN-γ, respectively.
# Two mice from each of groups 1, 5, and 8 were immunized with β-amyloid peptide 10 days prior to sacrifice.
# [7] = system: PDAPP mice; experiment: β-amyloid plaque load in brain sections (visual and computer assisted image analysis); assay type: in vivo
# Description: Transgenic PDAPP mice were acquired from Athena Neurosciences, Inc. (South San Francisco, CA). These mice express a human gene encoding a mutant form of β-amyloid precursor protein and progressively develop β-amyloid deposits in the hippocampus and cerebral cortex in a manner similar to that seen in Alzheimer's disease. The β-amyloid deposits in the transgenic mice become associated with activated microglial cells, reactive astrocytes and other features of the periplaque inflammatory response seen in Alzheimer's disease brains.
# 4 to 5 month old PDAPP mice were fed or nasally administered either [1-40]β-amyloid peptide or a control protein (myelin basic protein or ovalbumin in amounts of 50 or 500 µg per feeding). Administration was carried out three (nasal) or five times consecutively (oral) during an initial one week period, and then on a weekly basis until the animals were between 11 and 12 months old. The orally administered β-amyloid peptide was in a dosage of 10 or 100 µg, and the nasally administered β-amyloid was in a dosage of 5 or 25 µg. […]
# Specificially, results are shown for both visual and computer assisted image analysis of β-amyloid plaque load for the 8 experimental groups of mice that were tested; values are shown for each mouse in the relevant group. […] The visual assessment of plaque load was scored according to the table shown at the bottom of Figure 9A.
# [8] = system: popliteal lymph node T-cells; experiment: Proliferation assay ([3H]thymidine incorporation) of popliteal lymph node cells after feeding or nasal treatment and immunization; assay type: in vivo, SWISSXBDF1 mice; details: fed or nasally treated; ten days after foot pad immunization with 100 µg peptide in 50 µg CFA; Figure 1B
# Experimental: as §1, §2
# [9] = system: popliteal lymph node T-cells and spleen cells; experiment: Proliferation assay in mouse strains immunized but not fed the peptide; assay type: in vivo, SJL/J, DBA/1, C57BL/6, BALB/C and C3H/EB mice; details: one in vitro stimulation, Figures 2A, 2B
# Experimental: as §2
# Figure 2A compares proliferation of popliteal lymph node T-cells from SJL/J, DBA/I, C57BL/6, BALB/C and C3H/EB mice immunized with [1-40]β-amyloid peptide. Figure 2B compares proliferation in spleen cells from SJL/J, DBA/1, C57BL/6, BALB/C and C3H/EB mice immunized with [1-40]β-amyloid peptide. […] It should be noted that T-cells for the experiment shown in this Example are stimulated with antigen only once in vitro prior to the proliferation assay. Additional stimulations would enlist response from the apparent non-responder strain C57BL/6 and (DBA/1). This experiment provides information about the responding ability of cells from various strains and was useful in designing the subsequent experiments described below. It is believed to be advantageous to select "good responders" (such as C3H/EB) but not "too high responders" (SJL/J was thus not chosen).
# [10] = system: PDAPP mice; experiment: Immunoreactivity tests on brain sections (immunological markers and cytokines); assay type: in vivo; details: mice treated mucosally; Figures 9A, 9B
# Experimental: 4 to 5 month old PDAPP mice were fed or nasally administered either [1-40]β-amyloid peptide or a control protein (myelin basic protein or ovalbumin in amounts of 50 or 500 µg per feeding). Administration was carried out three (nasal) or five times consecutively (oral) during an initial one week period, and then on a weekly basis until the animals were between 11 and 12 months old. The orally administered β-amyloid peptide was in a dosage of 10 or 100 µg, and the nasally administered β-amyloid was in a dosage of 5 or 25 µg.
# The feeding and nasal administration of β-amyloid peptide, or ovalbumin to PDAPP mice was conducted among the following mice groups: Group 0: Non treated; mice nos. 0.1-0.7 Group 1: fed [1-40]β-amyloid peptide 100µg/feeding; mice nos. 1.1-1.9 Group 2: fed [1-40]β-amyloid peptide 10µg/feeding; mice nos. 2.1-2.9 Group 3: nasal [1-40]β-amyloid peptide 25µg/treatment; mice nos. 3.1-3.9 Group 4: nasal [1-40]β-amyloid peptide 5µg/treatment; mice nos. 4.1-4.7 Group 5: fed ovalbumin 500µg/feeding; mice nos. 5.1-5.6 Group 6: nasal ovalbumin 50µg/treatment; mice nos. 6.1-6.6 Group 7: fed MBP 500µg/feeding; mice nos. 7.1-7.5 Group 8: nasal MBP 50µg/treatment; mice nos. 8.1-8.6
# At the end of the treatment period, the mice were sacrificed and brains, popliteal lymph nodes and spleens removed. […]
# [11] = system: popliteal lymph node and spleen T-cells; experiment: Cytokine profiles (capture ELISA) after feeding or nasal administration and immunization of non-transgenic littermates; assay type: in vivo, SWISSXXB6D2F1 mice; details: then immunized, ten days later
# Experimental: Levels of IL-4, IL-2, IL-10, TGF-β and IFNγ in supernatants were determined by capture ELISA as described. […] Briefly, supernatants were added to microtiter (Maxisorp) plates, previously coated with rat anti-mouse IL-4, IL-2, IL-10, TGF-β or IFN-γ monoclonal antibodies (capture antibodies, Pharmingen; 1 µg/ml at 4°C over night) and blocked with BSA-diluent/blocking solution (KPL). Plates were washed, and standards and samples were added for another overnight incubation at 4°C. Bound cytokine was detected by the addition of ABTS (Kirkegaard & Perry). Wells were washed, and cytokine levels determined using biotinylated rat anti-mouse IL-4, IL-2, IL-10, TGF-β or IFN-γ monoclonal antibodies (detecting antibodies, Pharmingen) and a peroxide visualization system (peroxidase-labeled streptavidin). IL-2 and IL-4 were analyzed after 24 hours of cell incubation with antigen, IL-10 and IFN-γ after 40 hours and TGF-β after 72 hours. Cytokine levels were calculated from a log-log plot of absorbance vs. concentration of recombinant cytokines (Pharmingen), and results are expressed in pg/mL (for IL-4, IL-2, IL-10, TGF-β and IFN-γ). Threshold sensitivities of ELISA assays were 5 pg/mL, 10 pg/mL and 2.5 ng/mL for IL-4, IL-2 and IFN-γ, respectively.
# Feeding and Immunization: SWISSXXB6D2F1 mice were fed with [1-40]Aβ 75 µg/feeding x 5 or nasally administered with 25 µg/application x 3, and 2 days after the last treatment, were immunized with 100 µg [1-40]Aβ in 50 µg CFA. Ten days later, the popliteal lymph node and spleen T-cells were checked for cytokine production as described above.
# [12] = system: community-dwelling subjects with mild or moderate dementia; details: cited from earlier work
# [13] = at least pursuant to nasal administration of 25 µg
# [14] = fed 75 µg/feeding x 5 or nasal 25 µg/application x 3
compound,measurement,setting,value
COc1ccc2c(c1)c(CC(=O)O)c(C)n2C(=O)c1ccc(Cl)cc1 [indomethacin],mental function during the study,[1],did not deteriorate
"[1-40]β-amyloid peptide: β-amyloid peptide fragment [1-40], sequence derived from β-amyloid precursor protein; antigen given orally or nasally",proliferation of spleen cells,[2],significant suppression of proliferation
same,IgG1 class antibodies against β-amyloid in antisera,[3],increase
same,secretion of IL-2 in spleen cells,"[4]; at 5 µg fed and 50 µg nasal, Fig. 5B",Suppression of IL-2 secretion was clear
same,secretion of IL-10,"[4]; fed 5, 50 or 500 µg/feeding for 5 days or nasal 5 or 50 µg/application for 3 days, Figures 4A, 4B",significant enhancement of IL-10 in at least one of spleen and PLN cells treated with at least one dose
same,secretion of TGF-β in spleen cells,"[4]; fed 5 and 50 µg/feeding for 5 days or nasal 50 µg/application for 3 days, Figure 6B",enhanced secretion
same,secretion of IL-2 in popliteal lymph nodes,"[4]; nasal administration (5 or 50 µg/application for 3 days), Fig. 5A",Suppression of IL-2 secretion was clear
same,PLN proliferation,[5],decreased PLN proliferation
same,production of IL-2,[6]; Figure 12,decreased production
same,production of IFN-γ,[6]; Figure 14,decreased production
same,production of IL-6,[6]; Figure 15,decreased production
same,production of IL-10,[6]; Figure 16,increased production
same,production of TGF-β,[6]; Figure 17,increased production
same,difference in β-amyloid deposits versus controls (1-tailed Mann-Whitney U-test),[7]; nasally administered 25 µg,statistically significant
same,development of β-amyloid deposits,"[7]; oral 10 or 100 µg or nasal 5 or 25 µg, weekly from 4-5 to 11-12 months of age, versus control groups",fewer β-amyloid deposits
same,proliferation in popliteal lymph nodes,[8],suppression of proliferation
same,proliferative response to the peptide after immunization,[9],"many strains of normal mice (not transgenic mice, not Alzheimer's model) respond"
same,microglial activation in the brain,[10],decreased microglial activation
same,production of inflammatory cytokines in the brain,[10],decreased production
same,in vitro IFN-γ response to Aβ stimulation,[11]; [13],reduced in vitro response
same,in vitro IL-2 response to Aβ stimulation,[11]; [13],reduced in vitro response
same,in vitro IL-10 response to Aβ stimulation,[11]; [14],increased response
same,in vitro TGF-β response to Aβ stimulation,[11]; [14],increased response
"Cl.Nc1c2c(nc3ccccc13)CCCC2.O [TACRINE, 1,2,3,4-tetrahydro-9-acridinamine monohydrochloride monohydrate]",efficacy for treating Alzheimer's disease,[12]; community-dwelling subjects with mild or moderate dementia,only partially effective
same,serum aminotransferase levels,"[12]; safety concern, may indicate hepatocellular injury",elevation
